We go through 21 compounds from publication PMC5011342, “A high throughput drug screening assay to identify compounds that promote oligodendrocyte differentiation using acutely dissociated and purified oligodendrocyte precursor cells” (BMC Research Notes, 2016).

The series concerns expanded OPCs. The experiment in a line: cells. As to conditions: for viability at 0.1 µM / viability at 1 µM / viability at 10 µM: Rattus norvegicus, 72 h. On the procedure:
Having established a consistent assay for measuring OL differentiation in vitro, the next step was to utilize this assay to assess the ability of a wide array of compounds to promote OL differentiation. Prior to library screening, we first established the maximum non-toxic dose of each compound in the library. […] Therefore, we added each compound in the NIH clinical collection (NCC) library to OPCs at 10, 1, and 0.1 µM concentrations. Three days later, we assessed viability of the treated cells by measuring AlamarBlue fluorescence, a measure of cell viability (see “Methods” section). […] Appropriately, we established three sets of screening concentrations for library compounds: non-toxic compounds were tested at 10 and 2 µM, slightly toxic compounds (only toxic at 10 µM) were tested at 2 and 0.4 µM, and very toxic compounds were tested at 0.4 and 0.08 µM.
OPCs were expanded in vitro by seeding into PDL-coated tissue culture flasks at 1000–2000 cells/cm^2 in differentiation media supplemented with 10 ng/ml PDGF-AA. Proliferating OPCs were fed every 2–3 days and supplemented with 2–3× concentration of PDGF as needed to prevent OPC differentiation. After 6–7 days of proliferation, OPCs were harvested by trypsinization, plated into PDL-coated 96-well Falcon plates and centrifuged at 200×g to facilitate cell attachment, survival, and even distribution of cells. Expanded OPCs were seeded in differentiation media at 10,000 cells/well and incubated for 2 h at 37 °C, 10 % CO2 prior to addition of compounds. The NCC library was diluted and added to cells at 10, 1, and 0.1 µM; each concentration was tested in quadruplicate. As a positive control for the induction of toxicity, 5 ng/ml tunicamycin was added to 8 wells in each plate. Three days later, a 1:10 dilution of alamarBlue® (AB) was added to each well and cells were incubated 4 h at 37 °C, 10 % CO2. AB fluorescence was measured using a PerkinElmer Victor II fluorescence microplate reader (PerkinElmer, Waltham, MA) with 560 nm excitation/590 nm emission filters. For library screening, the highest concentration of each compound was adjusted to a minimally toxic concentration based on this toxicity data. Compounds were additionally tested at a second concentration that was 1/5th of the top concentration. The final concentration of DMSO in each well was 0.1 %.

Setting [1] is: alamarBlue viability of expanded OPCs, compound at 0.1 µM, relative to DMSO control.
Setting [2] is: alamarBlue viability of expanded OPCs, compound at 1 µM, relative to DMSO control.
The mark [3] stands for this setting: alamarBlue viability of expanded OPCs, compound at 10 µM, relative to DMSO control.
The mark [4] stands for this setting: read-out: 0.1 µM (% DMSO), alamarBlue viability of expanded OPCs, compound at 0.1 µM, sheet All Tox data.
Where [5] appears, read: read-out: 1 µM (% DMSO), alamarBlue viability of expanded OPCs, compound at 1 µM, sheet All Tox data.
Setting [6] is: read-out: 10 µM (% DMSO), alamarBlue viability of expanded OPCs, compound at 10 µM, sheet All Tox data.
Where [7] appears, read: alamarBlue viability, NCC library compound at 0.1 µM, sheet "All Tox data".
[8] abbreviates: alamarBlue viability, NCC library compound at 1 µM, sheet "All Tox data".
Where [9] appears, read: alamarBlue viability, NCC library compound at 10 µM, sheet "All Tox data".
Where [10] appears, read: read-out: 0.1 µM (% DMSO), alamarBlue viability, NCC library compound at 0.1 µM, sheet "All Tox data".
Setting [11] is: read-out: 1 µM (% DMSO), alamarBlue viability, NCC library compound at 1 µM, sheet "All Tox data".
Where [12] appears, read: read-out: 10 µM (% DMSO), alamarBlue viability, NCC library compound at 10 µM, sheet "All Tox data".

Values joined by “and” are separate entries in the source; they are usually repeats but may differ in a detail not shown here. Equal values may be shown once. Where a name gives a salt, the structure may show the parent alone. Read-outs that look alike come from different tables or passages of the source. Starred links: 1 amine or outer side, 2 acyl side, 3 side chain; linkers in the order of their positions; H or OH if unused. Positions of bridges follow the written chain, without caps; N, C: chain ends. Non-standard residues stand in square brackets, D forms with d. Residues, ends and D or L forms follow the SMILES beside them. Chains are numbered I, II in the order given. Actinocin(9to1) = Cc1c2oc3c(C)ccc(C(=O)[*:1])c3nc-2c(C(=O)[*:2])c(N)c1=O; NMeV = CN[C@H](C(=O)O)C(C)C; Sar = CNCC(=O)O

`COc1cccc2c1C(=O)c1c(O)c3c(c(O)c1C2=O)C[C@@](O)(C(=O)CO)C[C@@H]3O[C@H]1C[C@H](N)[C@H](O)[C@H](C)O1` [Adriamycin]: the “0.1 µM (% DMSO)” value came to 9.9 % DMSO under setting [1] and 84.2 % DMSO (alamarBlue viability of expanded OPCs, compound at 0.1 µM, sheet All Tox data). Also, the “1 µM (% DMSO)” value under setting [2] is listed as 9.6 % DMSO and the “1 µM (% DMSO)” value (alamarBlue viability of expanded OPCs, compound at 1 µM, sheet All Tox data) was determined as 11.2 % DMSO. Also, the “10 µM (% DMSO)” value is, setting by setting: under setting [3], 7.8 % DMSO; (alamarBlue viability of expanded OPCs, compound at 10 µM, sheet All Tox data) 11.9 % DMSO.
As for `Nc1ncnc2c1ncn2[C@@H]1O[C@H](CO)C[C@H]1O` [Cordycepin], the viability at 0.1 µM under setting [4] was found to be 71.9%. Further, under setting [5], the viability at 1 µM was found to be 38.3%. Besides, under setting [6], the viability at 10 µM came out at 16%.
Regarding `C[C@]12CCC(=O)C=C1CC[C@@H]1[C@@H]2C(=O)C[C@@]2(C)[C@H]1CC[C@]2(O)C(=O)CO` [Cortisone], the “0.1 µM (% DMSO)” value under setting [7] amounted to 99.5 % DMSO. Also, the “1 µM (% DMSO)” value under setting [8] worked out at 105.4 % DMSO. Further, under setting [9], the “10 µM (% DMSO)” value is given as 105.4 % DMSO.
On to `Cc1c2oc3c(C)ccc(C(=O)N[C@@H]4C(=O)N[C@H](C(C)C)C(=O)N5CCC[C@H]5C(=O)N(C)CC(=O)N(C)[C@@H](C(C)C)C(=O)O[C@@H]4C)c3nc-2c(C(=O)N[C@@H]2C(=O)N[C@H](C(C)C)C(=O)N3CCC[C@H]3C(=O)N(C)CC(=O)N(C)[C@@H](C(C)C)C(=O)O[C@@H]2C)c(N)c1=O` [Dactinomycin] (I: T[dV]P[Sar][NMeV] / II: T[dV]P[Sar][NMeV]; ester I:1-I:C, II:1-II:C; linker I:N-II:N via Actinocin(9to1)), for which the viability at 0.1 µM (read-out: 0.1 µM (% DMSO)) amounted to 10.2%. Moreover, the viability at 1 µM (read-out: 1 µM (% DMSO)) was determined as 11.1%. Moreover, under “read-out: 10 µM (% DMSO)”, the viability at 10 µM turned out to be 12.2%.
For the compound `COc1cccc2c1C(=O)c1c(O)c3c(c(O)c1C2=O)C[C@@](O)(C(=O)CO)C[C@@H]3O[C@H]1C[C@H](N)[C@H](O)[C@H](C)O1` [Doxorubicin], the viability at 0.1 µM under setting [4] worked out at 86.2%. In addition, the viability at 1 µM under setting [5] turned out to be 11%. Under setting [6], the viability at 10 µM turned out to be 13.4%.
In the case of `C[C@]12CCC(=O)C=C1CC[C@@H]1[C@@H]2[C@@H](O)C[C@@]2(C)[C@H]1CC[C@]2(O)C(=O)CO` [Hydrocortisone], the “0.1 µM (% DMSO)” value under setting [1] is 122.3 % DMSO and 114.4 % DMSO. The “1 µM (% DMSO)” value under setting [2] is 115.5 % DMSO and 108.5 % DMSO. Moreover, the “10 µM (% DMSO)” value under setting [3] was 113.8 % DMSO and 107.0 % DMSO.
As to `CC(=O)[C@]1(O)Cc2c(O)c3c(c(O)c2[C@@H](O[C@H]2C[C@H](N)[C@H](O)[C@H](C)O2)C1)C(=O)c1ccccc1C3=O` [Idarubicin], the viability at 0.1 µM under setting [4] was found to be 13.9%. The viability at 1 µM under setting [5] was found to be 10.9%. Also, the viability at 10 µM under setting [6] turned out to be 11.4%.
Regarding `Cc1ccc(NC(=O)c2ccc(CN3CCN(C)CC3)cc2)cc1Nc1nccc(-c2cccnc2)n1` [Imatinib mesylate], the viability at 0.1 µM under setting [10] was determined as 93.7%. Further, the viability at 1 µM under setting [11] is 70.5%. The viability at 10 µM under setting [12] is 18%.
Taken in the same sequence, the figures for `CN(C)CCCN1c2ccccc2CCc2ccccc21` [Imipramine] were 79.4%, 61.9% and 30.6%.
As for `O=C1c2c(O)ccc(O)c2C(=O)c2c(NCCNCCO)ccc(NCCNCCO)c21` [Mitoxantrone], the “0.1 µM (% DMSO)” value under setting [1] is reported as 9.7 % DMSO. Under setting [2], the “1 µM (% DMSO)” value stood at 9.0 % DMSO. For the same compound, the “10 µM (% DMSO)” value under setting [3] was 7.8 % DMSO.
As for `Cc1ccccc1C(OCCN(C)C)c1ccccc1` (stereo not drawn) [Orphenadrine], under setting [1], the “0.1 µM (% DMSO)” value was 86.1 % DMSO and 95.1 % DMSO. For the same compound, the “1 µM (% DMSO)” value under setting [2] is 67.2 % DMSO and 74.3 % DMSO. Also, the “10 µM (% DMSO)” value under setting [3] was 47.8 % DMSO and 50.8 % DMSO.
On to `COc1cc([C@@H]2c3cc4c(cc3[C@H](O)[C@H]3COC(=O)[C@H]23)OCO4)cc(OC)c1OC` [Podophyllotoxin], for which the “0.1 µM (% DMSO)” value under setting [1] is 14.8 % DMSO. Moreover, the “1 µM (% DMSO)” value under setting [2] came to 10.6 % DMSO. Moreover, under setting [3], the “10 µM (% DMSO)” value is given as 9.1 % DMSO.
For the compound `CCCN[C@H]1CCc2nc(N)sc2C1` [Pramipexole], under setting [4], the viability at 0.1 µM amounted to 88.8%. In addition, under setting [5], the viability at 1 µM worked out at 92.5%. The viability at 10 µM under setting [6] came to 96%.
With `COc1cc2nc(N3CCN(C(=O)c4ccco4)CC3)nc(N)c2cc1OC` [Prazosin], the viability at 0.1 µM under setting [4] was determined as 80.9%. Moreover, under setting [5], the viability at 1 µM stood at 87.6%. Further, the viability at 10 µM under setting [6] is 13.1%.
In the case of `CC(C)CC(N(C)C)C1(c2ccc(Cl)cc2)CCC1` (stereo not drawn) [Sibutramine], the viability at 0.1 µM under setting [10] is 88.3%. Under setting [11], the viability at 1 µM stood at 84%. Moreover, the viability at 10 µM under setting [12] was determined as 84.4%.
On the same counts, the results for `Cc1cc(NS(=O)(=O)c2ccc(N)cc2)no1` [Sulfamethoxazole] are 90.6%, 96.3% and 96.5%.
For the compound `C[C@]12CC[C@H]3[C@@H](CCC4=CC(=O)CC[C@@]43C)[C@@H]1CC[C@@H]2O` [Testosterone], the viability at 0.1 µM (read-out: 0.1 µM (% DMSO)) stood at 88.4%. Further, where the note is “read-out: 1 µM (% DMSO)”, the viability at 1 µM is 87.4%. The viability at 10 µM (read-out: 10 µM (% DMSO)) was 86.2%. Besides, where the note is “rat”, the “0.1 µM (% DMSO)” value is 87.3 % DMSO, the “1 µM (% DMSO)” value is listed as 87.6 % DMSO and the “10 µM (% DMSO)” value is 84.8 % DMSO.
With `Clc1ccccc1CN1CCc2sccc2C1` [Ticlopidine], the viability at 0.1 µM under setting [4] was 107%. For the same compound, the viability at 1 µM under setting [5] was found to be 103%. Also, under setting [6], the viability at 10 µM is 90.3%.
With `COc1ccc(CCN(C)CCCC(C#N)(c2ccc(OC)c(OC)c2)C(C)C)cc1OC` (stereo not drawn) [Verapamil], for the setting “read-out: 0.1 µM (% DMSO)”, the viability at 0.1 µM was 84.5%. Also, the viability at 1 µM (read-out: 1 µM (% DMSO)) was 92.8%. For the same compound, the viability at 10 µM (read-out: 10 µM (% DMSO)) stood at 43%.
With `CC[C@]1(O)C[C@H]2CN(CCc3c([nH]c4ccccc34)[C@@](C(=O)OC)(c3cc4c(cc3OC)N(C=O)[C@H]3[C@@](O)(C(=O)OC)[C@H](OC(C)=O)[C@]5(CC)C=CCN6CC[C@]43[C@@H]65)C2)C1` [Vincristine], the viability at 0.1 µM under setting [10] stood at 17.4%. Further, the viability at 1 µM under setting [11] worked out at 11.1%. In addition, the viability at 10 µM under setting [12] came out at 9%.
Take Medroxyprogesterone: the “0.1 µM (% DMSO)” value under setting [7] is given as 117.3 % DMSO. The “1 µM (% DMSO)” value under setting [8] worked out at 126.7 % DMSO. In addition, the “10 µM (% DMSO)” value under setting [9] stood at 141.4 % DMSO.
